pIC50: −log10 of the molar value.
What follows are compounds tested against T1, recombinant human sEH (HsEH) (Homo sapiens, UniProt P34913) (assay: biochemical). Details: not given.
T1 sequence (P34913 1-555): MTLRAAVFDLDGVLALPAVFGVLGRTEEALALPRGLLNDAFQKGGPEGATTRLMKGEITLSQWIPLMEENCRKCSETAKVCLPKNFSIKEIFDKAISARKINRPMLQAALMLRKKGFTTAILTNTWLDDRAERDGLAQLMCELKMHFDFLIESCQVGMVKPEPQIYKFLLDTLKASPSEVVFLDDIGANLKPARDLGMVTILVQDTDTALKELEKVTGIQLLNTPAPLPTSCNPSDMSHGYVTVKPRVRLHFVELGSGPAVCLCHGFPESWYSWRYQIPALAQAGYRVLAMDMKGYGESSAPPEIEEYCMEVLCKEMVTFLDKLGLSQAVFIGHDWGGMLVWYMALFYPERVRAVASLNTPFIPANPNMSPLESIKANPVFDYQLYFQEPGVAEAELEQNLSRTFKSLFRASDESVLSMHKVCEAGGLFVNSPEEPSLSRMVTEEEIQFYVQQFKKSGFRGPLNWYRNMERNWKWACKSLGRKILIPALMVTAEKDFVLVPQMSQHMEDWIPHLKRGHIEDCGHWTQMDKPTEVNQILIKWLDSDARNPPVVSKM

Structure (SMILES) | pIC50
CCC(=O)N1CCC(CC(=O)N2CCCN(Cc3ccc(NC(=O)N[C@@]45C[C@@H]6C[C@@](C)(C[C@@](C)(C6)C4)C5)c(F)c3)CC2)CC1 [I2, 1-((1r,3R,5S,7r)-3,5-Dimethyladamantan-1-yl)-3-(2-fluoro-4-((4-(2-(1-propionylpiperidin-4-yl)acetyl)-1,4-diazepan-1-yl)methyl)phenyl)urea] | 9.46

Same assay, conditions: LLE = pIC50-cLogP

Structure (SMILES) | LLE (ligand lipophilicity efficiency)
C[C@]12C[C@@H]3C[C@](C)(C1)C[C@@](NC(=O)Nc1ccc(C(=O)NC4CCC(C(=O)NC(CO)(CO)CO)CC4)cc1F)(C3)C2 (stereo partly drawn) [C8, N-(4-((1,3-Dihydroxy-2-(hydroxymethyl)propan-2-yl)carbamoyl)cyclohexyl)-4-(3-((1r,3R,5S,7r)-3,5-dimethyladamantan-1-yl)ureido)-3-fluorobenzamide] | 7.653
C[C@]12C[C@@H]3C[C@](C)(C1)C[C@](NC(=O)Nc1ccc(C(=O)N4CCCC(C(=O)NCCO)C4)cc1F)(C3)C2 (stereo partly drawn) [B2, 1-(4-(3-((1r,3R,5S,7S)-3,5-dimethyladamantan-1-yl)ureido)-3-fluorobenzoyl)-N-(2-hydroxyethyl)piperidine-3-carboxamide] | 7.069
C[C@]12C[C@@H]3C[C@](C)(C1)C[C@@](NC(=O)Nc1ccc(C(=O)NC4CCC(C(=O)NC(CO)CO)CC4)cc1F)(C3)C2 (stereo partly drawn) [C7, N-(4-((1,3-Dihydroxypropan-2-yl)carbamoyl)cyclohexyl)-4-(3-((1r,3R,5S,7r)-3,5-dimethyladamantan-1-yl)ureido)-3-fluorobenzamide] | 6.555
C[C@]12C[C@@H]3C[C@](C)(C1)C[C@@](NC(=O)Nc1ccc(C(=O)NC4CCC(C(N)=O)CC4)cc1F)(C3)C2 (stereo partly drawn) [C6, N-(4-Carbamoylcyclohexyl)-4-(3-((1r,3R,5S,7r)-3,5-dimethyladamantan-1-yl)ureido)-3-fluorobenzamide] | 5.746
CCC(C)C(=O)N1CCCN(C(=O)C2CCCN(C(=O)c3ccc(NC(=O)N[C@@]45C[C@@H]6C[C@@](C)(C[C@@](C)(C6)C4)C5)c(F)c3)C2)CC1 (stereo partly drawn) [F3, 1-((1r,3R,5S,7r)-3,5-Dimethyladamantan-1-yl)-3-(2-fluoro-4-(3-(4-(2-methylbutanoyl) −1,4-diazepane-1-carbonyl)piperidine-1-carbonyl)phenyl)urea] | 4.847
CC(O)CNC(=O)C1CCN(C(=O)c2ccc(NC(=O)N[C@@]34C[C@@H]5C[C@@](C)(C[C@@](C)(C5)C3)C4)c(F)c2)CC1 (stereo partly drawn) [A3, 1-(4-(3-((1r,3R,5S,7r)-3,5-Dimethyladamantan-1-yl)ureido)-3-fluorobenzoyl)-N-(2-hydroxypropyl)piperidine-4-carboxamide] | 5.708
C=C(C)C(=O)N1CCCN(C(=O)C2CCCN(Cc3ccc(NC(=O)N[C@@]45C[C@@H]6C[C@@](C)(C[C@@](C)(C6)C4)C5)c(F)c3)C2)CC1 (stereo partly drawn) [G4, 1-((1r,3R,5S,7r)-3,5-Dimethyladamantan-1-yl)-3-(2-fluoro-4-((3-(4-methacryloyl-1,4-diazepane-1-carbonyl)piperidin-1-yl)methyl)phenyl)urea] | 4.821
C[C@]12C[C@@H]3C[C@](C)(C1)C[C@@](NC(=O)Nc1ccc(CN4CCCN(C(=O)CC5CCN(CCO)CC5)CC4)cc1F)(C3)C2 [I5, 1-((1r,3R,5S,7r)-3,5-Dimethyladamantan-1-yl)-3-(2-fluoro-4-((4-(2-(1-(2-hydroxyethyl)piperidin-4-yl)acetyl)-1,4-diazepan-1-yl)methyl)phenyl)urea] | 4.937
C=CC(=O)N1CCCN(C(=O)C2CCCN(Cc3ccc(NC(=O)N[C@@]45C[C@@H]6C[C@@](C)(C[C@@](C)(C6)C4)C5)c(F)c3)C2)CC1 (stereo partly drawn) [G3, 1-(4-((3-(4-acryloyl-1,4-Diazepane-1-carbonyl)piperidin-1-yl)methyl)-2-fluorophenyl) −3-((1r,3R,5S,7r)-3,5-dimethyladamantan-1-yl)urea] | 5.598
CCN(CC)C(=O)C1CCN(C(=O)c2ccc(NC(=O)N[C@@]34C[C@@H]5C[C@@](C)(C[C@@](C)(C5)C3)C4)c(F)c2)CC1 [A1, 1-(4-(3-((1r,3R,5S,7r)-3,5-Dimethyladamantan-1-yl)ureido)-3-fluorobenzoyl)-N,N-diethylpiperidine-4-carboxamide] | 4.954
C[C@]12C[C@@H]3C[C@](C)(C1)C[C@@](NC(=O)Nc1ccc(C(=O)N4CCCC(C(=O)N5CCN(CCO)CC5)C4)cc1F)(C3)C2 (stereo partly drawn) [B4, 1-((1r,3R,5S,7r)-3,5-Dimethyladamantan-1-yl)-3-(2-fluoro-4-(3-(4-(2-hydroxyethyl)piperazine-1-carbonyl)piperidine-1-carbonyl)phenyl)urea] | 6.516
CC(O)CNC(=O)C1CCN(Cc2ccc(NC(=O)N[C@@]34C[C@@H]5C[C@@](C)(C[C@@](C)(C5)C3)C4)c(F)c2)CC1 (stereo partly shown) [E2, 1-(4-(3-((1r,7r)-3,5-Dimethyladamantan-1-yl)ureido)-3-fluorobenzyl)-N-(2-hydroxypropyl)piperidine-4-carboxamide] | 3.267
CC(C)(C)OC(=O)N1CCN(CCNC(=O)C2CCC(NC(=O)c3ccc(NC(=O)N[C@@]45C[C@@H]6C[C@@](C)(C[C@@](C)(C6)C4)C5)c(F)c3)CC2)CC1 (stereo partly drawn) [C1, Tert-butyl-4-(2-(4-(4-(3-((1r,3R,5S,7r)-3,5-dimethyladamantan-1-yl)ureido)-3-fluorobenzamido)cyclohexane-1-carboxamido)ethyl)piperazine-1-carboxylate] | 2.272
C[C@]12C[C@@H]3C[C@](C)(C1)C[C@@](NC(=O)Nc1ccc(CN4CCCC(C(=O)N(CCO)CCO)C4)cc1F)(C3)C2 (stereo partly drawn) [D5, 1-(4-(3-((1r,3R,5S,7r)-3,5-Dimethyladamantan-1-yl)ureido)-3-fluorobenzyl)-N,N-bis(2-hydroxyethyl)piperidine-3-carboxamide] | 6.879
CCC(=O)N1CCC(CC(=O)N2CCCN(Cc3ccc(NC(=O)N[C@@]45C[C@@H]6C[C@@](C)(C[C@@](C)(C6)C4)C5)c(F)c3)CC2)CC1 [I2, 1-((1r,3R,5S,7r)-3,5-Dimethyladamantan-1-yl)-3-(2-fluoro-4-((4-(2-(1-propionylpiperidin-4-yl)acetyl)-1,4-diazepan-1-yl)methyl)phenyl)urea] | 5.623
C[C@]12C[C@@H]3C[C@](C)(C1)C[C@@](NC(=O)Nc1ccc(C(=O)NC4CCC(C(=O)NCCO)CC4)cc1F)(C3)C2 (stereo partly drawn) [C3, 4-(3-((1r,3R,5S,7r)-3,5-Dimethyladamantan-1-yl)ureido)-3-fluoro-N-(4-((2-hydroxyethyl)carbamoyl)cyclohexyl)benzamide] | 6.100
CCN(CC)CCN1CCC(CC(=O)N2CCCN(Cc3ccc(NC(=O)N[C@@]45C[C@@H]6C[C@@](C)(C[C@@](C)(C6)C4)C5)c(F)c3)CC2)CC1 [I8, 1-(4-((4-(2-(1-(2-(Diethylamino)ethyl)piperidin-4-yl)acetyl)-1,4-diazepan-1-yl)methyl) −2-fluorophenyl)-3-((1r,3R,5S,7r)-3,5-dimethyladamantan-1-yl)urea] | 3.910
C[C@]12C[C@@H]3C[C@](C)(C1)C[C@@](NC(=O)Nc1ccc(C(=O)NC4CCC(C(=O)N(CCO)CCO)CC4)cc1F)(C3)C2 (stereo partly drawn) [C5, N-(4-(Bis(2-hydroxyethyl)carbamoyl)cyclohexyl)-4-(3-((1r,3R,5S,7r)-3,5-dimethyladamantan-1-yl)ureido)-3-fluorobenzamide] | 5.869
CCC(=O)N1CCCN(C(=O)C2CCCN(C(=O)c3ccc(NC(=O)N[C@@]45C[C@@H]6C[C@@](C)(C[C@@](C)(C6)C4)C5)c(F)c3)C2)CC1 (stereo partly drawn) [F2, 1-((1r,3R,5S,7r)-3,5-Dimethyladamantan-1-yl)-3-(2-fluoro-4-(3-(4-propionyl-1,4-diazepane-1-carbonyl)piperidine-1-carbonyl)phenyl)urea] | 6.164
C[C@]12C[C@@H]3C[C@](C)(C1)C[C@@](NC(=O)Nc1ccc(CN4CCCC(C(=O)O)C4)cc1F)(C3)C2 (stereo partly drawn) [D, 1-(4-(3-((1r,3R,5S,7r)-3,5-Dimethyladamantan-1-yl)ureido)-3-fluorobenzyl) piperidine-3-carboxylic acid] | 7.656
COC(=O)N1CCC(CC(=O)N2CCCN(Cc3ccc(NC(=O)N[C@@]45C[C@@H]6C[C@@](C)(C[C@@](C)(C6)C4)C5)c(F)c3)CC2)CC1 [I4, Methyl-4-(2-(4-(4-(3-((1r,3R,5S,7r)-3,5-dimethyladamantan-1-yl)ureido)-3-fluorobenzyl)-1,4-diazepan-1-yl)-2-oxoethyl)piperidine-1-carboxylate] | 5.125
CC(=O)N1CCC(CC(=O)N2CCCN(Cc3ccc(NC(=O)N[C@@]45C[C@@H]6C[C@@](C)(C[C@@](C)(C6)C4)C5)c(F)c3)CC2)CC1 [I1, 1-(4-((4-(2-(1-Acetylpiperidin-4-yl)acetyl)-1,4-diazepan-1-yl)methyl)-2-fluorophenyl)-3-((1r,3R,5S,7r)-3,5-dimethyladamantan-1-yl)urea] | 6.119
C[C@]12C[C@@H]3C[C@](C)(C1)C[C@@](NC(=O)Nc1ccc(C(=O)N4CCC(C(=O)NCCO)CC4)cc1F)(C3)C2 [A2, 1-(4-(3-((1r,3R,5S,7r)-3,5-Dimethyladamantan-1-yl)ureido)-3-fluorobenzoyl)-N-(2-hydroxyethyl)piperidine-4-carboxamide] | 6.203
CCC(C)C(=O)N1CCCN(C(=O)C2CCCN(Cc3ccc(NC(=O)N[C@@]45C[C@@H]6C[C@@](C)(C[C@@](C)(C6)C4)C5)c(F)c3)C2)CC1 (stereo partly drawn) [G2, 1-((1r,3R,5S,7r)-3,5-Dimethyladamantan-1-yl)-3-(2-fluoro-4-((3-(4-(2-methylbutanoyl) −1,4-diazepane-1-carbonyl)piperidin-1-yl)methyl)phenyl)urea] | 4.986
